The values that follow come from patent US12077503B2, “Substituted cyclic amides and their use as herbicides” (FMC CORPORATION, priority 2015, dated 2024).

Holding throughout (experiment): Test A postemergence
Holding throughout (assay type): in vivo

The test system of assay [1] is ragweed (common ragweed, Ambrosia elatior). The following applies: Ambrosia artemisiifolia, post-emergence, 240 h; for pest or weed control at 125 g/ha: 125 g ai/ha; for pest or weed control at 500 g/ha: 500 g ai/ha. Summed up: (§1)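 Seeded soil received test chemicals as a preemergence directed spray, and seedlings at one to two leaves, 2–10 cm tall, received them postemergence, in a non-phytotoxic, surfactant-containing solvent mixture. Pots were held in a greenhouse for approximately 10 d, then rated for injury from 0, no effect, to 100, complete control.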

For assay [2], the system named is blackgrass (Alopecurus myosuroides). Particulars: Alopecurus myosuroides, post-emergence, 240 h; for pest or weed control at 125 g/ha: 125 g ai/ha; for pest or weed control at 500 g/ha: 500 g ai/ha. Summed up: as §1
Assay [3] relates to barnyardgrass (Echinochloa crus-galli). The following applies: Echinochloa crus-galli, post-emergence, 240 h; for pest or weed control at 125 g/ha: 125 g ai/ha; for pest or weed control at 500 g/ha: 500 g ai/ha. Summed up:
as §1

Assay [4] deals with ryegrass, Italian (Italian ryegrass, Lolium multiflorum). The following applies: Lolium multiflorum, post-emergence, 240 h; for pest or weed control at 125 g/ha: 125 g ai/ha; for pest or weed control at 500 g/ha: 500 g ai/ha. Summed up:
as §1

The subject of a further assay is corn (Zea mays). The following applies: Zea mays, post-emergence, 240 h; for plant injury at 125 g/ha / Corn plant response rating (crop injury, 0 = no effect, 100 = complete kill) at 125 g/ha: 125 g ai/ha; for Corn plant response rating (crop injury, 0 = no effect, 100 = complete kill) at 500 g/ha: visual injury, approx. 10 d; for Corn plant response rating (crop injury, 0 = no effect, 100 = complete kill) at 125 g/ha: visual injury after approximately 10 d. Summed up: as §1

[5] abbreviates: Postemergence, visual injury, 0 to 100 scale (0 no effect, 100 complete control), approx. 10 d, read-out: Plant response rating, Ragweed.
[6] abbreviates: Postemergence, visual injury, 0 to 100 scale (0 no effect, 100 complete control), approx. 10 d, read-out: Plant response rating, Blackgrass.
Setting [7] is: Postemergence, visual injury, 0 to 100 scale (0 no effect, 100 complete control), approx. 10 d, read-out: Plant response rating, Barnyardgrass.
[8] abbreviates: Postemergence, visual injury, 0 to 100 scale (0 no effect, 100 complete control), approx. 10 d, read-out: Plant response rating, Ryegrass, Italian.
Where [9] appears, read: Postemergence, 500 g ai/ha, 0 to 100 scale (0 no effect, 100 complete control).
The mark [10] stands for this setting: postemergence, visual injury vs untreated controls after approx. 10 d, 0 = no effect, 100 = complete control, read-out: Ragweed plant response rating (0 to 100 scale).
[11] abbreviates: postemergence, visual injury vs untreated controls after approx. 10 d, 0 = no effect, 100 = complete control, read-out: Blackgrass plant response rating (0 to 100 scale).
Where [12] appears, read: postemergence, visual injury vs untreated controls after approx. 10 d, 0 = no effect, 100 = complete control, read-out: Barnyardgrass plant response rating (0 to 100 scale).
Setting [13] is: postemergence, visual injury vs untreated controls after approx. 10 d, 0 = no effect, 100 = complete control, read-out: Ryegrass, Italian plant response rating (0 to 100 scale).
Setting [14] is: postemergence, visual injury vs untreated controls after approx. 10 d, 0 = no effect, 100 = complete control, read-out: Corn plant response rating (0 to 100 scale).
[15] abbreviates: postemergence, visual injury after approximately 10 d, 0 to 100 scale (0 no effect, 100 complete control), read-out: Plant response rating, Ragweed.
Where [16] appears, read: postemergence, visual injury after approximately 10 d, 0 to 100 scale (0 no effect, 100 complete control), read-out: Plant response rating, Blackgrass.
[17] abbreviates: postemergence, visual injury after approximately 10 d, 0 to 100 scale (0 no effect, 100 complete control), read-out: Plant response rating, Barnyardgrass.
Where [18] appears, read: postemergence, visual injury after approximately 10 d, 0 to 100 scale (0 no effect, 100 complete control), read-out: Plant response rating, Ryegrass, Italian.
Setting [19] is: postemergence, 0 to 100 scale (0 no effect, 100 complete control).

Read-outs that look alike come from different tables or passages of the source.

In the case of `O=C1NC[C@H](c2cncs2)[C@H]1C(=O)Nc1ccccc1F` [Compound 1335], the pest or weed control at 125 g/ha in assay [1] (Postemergence, visual rating about 10 d after treatment, read-out: Ragweed plant response rating (0 to 100 scale)) was 0%; in assay [2] (Postemergence, visual rating about 10 d after treatment, read-out: Blackgrass plant response rating (0 to 100 scale)), 0%; in assay [3] (Postemergence, visual rating about 10 d after treatment, read-out: Barnyardgrass plant response rating (0 to 100 scale, 0 no effect, 100 complete control)) it was 0%; in assay [4] (Postemergence, visual rating about 10 d after treatment, read-out: Ryegrass, Italian plant response rating (0 to 100 scale)), 0%. Further, the pest or weed control at 500 g/ha in assay [1] (setting [5]), in assay [2] (setting [6]), in assay [3] (setting [7]) and in assay [4] (setting [8]) was 0% each time. Moreover, in the assay with corn (Zea mays) (Postemergence, visual rating about 10 d after treatment, read-out: Corn plant response rating (0 to 100 scale)), the plant injury at 125 g/ha came out at 0%. This molecule registered a Corn plant response rating (crop injury, 0 = no effect, 100 = complete kill) at 500 g/ha in the assay on corn (Zea mays) (setting [9]) of 0%.
Take `CN1CC[C@H](c2cccc(Cl)c2)[C@@H](C(=O)Nc2ccccc2S(C)(=O)=O)C1=O` [Compound 923]: the pest or weed control at 125 g/ha was 0% in assay [1] (Postemergence, visual injury after approximately 10 d, 0 to 100 scale where 0 is no effect and 100 is complete control, read-out: Plant response rating, Ragweed); 0% in assay [2] (Postemergence, visual injury after approximately 10 d, 0 to 100 scale where 0 is no effect and 100 is complete control, read-out: Plant response rating, Blackgrass); 0% in assay [3] (Postemergence, visual injury after approximately 10 d, 0 to 100 scale where 0 is no effect and 100 is complete control, read-out: Plant response rating, Barnyardgrass); 0% in assay [4] (Postemergence, visual injury after approximately 10 d, 0 to 100 scale where 0 is no effect and 100 is complete control, read-out: Plant response rating, Ryegrass, Italian). This molecule also came in with a Corn plant response rating (crop injury, 0 = no effect, 100 = complete kill) at 125 g/ha in the assay on corn (Zea mays) (Postemergence, 0 to 100 scale where 0 is no effect and 100 is complete control) of 0%.
Consider `CN1C[C@H](c2ccc(C(F)(F)F)cc2)[C@@H](C(=O)Nc2ccccc2)C1=O` [Compound 1253], for which the pest or weed control at 125 g/ha stood at 0% in assay [1] (setting [10]), 30% in assay [2] (setting [11]), 90% in assay [3] (setting [12]) and 40% in assay [4] (setting [13]). The pest or weed control at 500 g/ha in assay [1] (setting [5]) turned out to be 0%; in assay [2] (setting [6]), 50%; in assay [3] (setting [7]), 100%; in assay [4] (setting [8]) it was 60%. The plant injury at 125 g/ha in the assay on corn (Zea mays) (setting [14]) is 0%. In addition, the Corn plant response rating (crop injury, 0 = no effect, 100 = complete kill) at 500 g/ha in the assay on corn (Zea mays) (setting [9]) stood at 70%.
Regarding `CN1C[C@H](c2cc(F)c(F)c(F)c2)[C@@H](C(=O)Nc2ccc(F)c(F)c2F)C1=O` [Compound 757], the pest or weed control at 125 g/ha in assay [1] (setting [15]) is 0%; in assay [2] (setting [16]) it was 60%; in assay [3] (setting [17]), 90%; in assay [4] (setting [18]), 20%. Also, in the assay with corn (Zea mays) (setting [19]), the Corn plant response rating (crop injury, 0 = no effect, 100 = complete kill) at 125 g/ha came out at 70%.
As for `O=C(Nc1cccc(F)c1F)[C@H]1C(=O)N(O)CC[C@@H]1c1ccc(F)cc1` [Compound 805], the pest or weed control at 125 g/ha turned out to be 0% in assay [1] (postemergence, visual injury rating after approximately 10 d, read-out: Ragweed plant response rating (0 to 100 scale, 0 no effect, 100 complete control)); 0% in assay [2] (postemergence, visual injury rating after approximately 10 d, read-out: Blackgrass plant response rating (0 to 100 scale, 0 no effect, 100 complete control)); 0% in assay [3] (postemergence, visual injury rating after approximately 10 d, read-out: Barnyardgrass plant response rating (0 to 100 scale, 0 no effect, 100 complete control)); 0% in assay [4] (postemergence, visual injury rating after approximately 10 d, read-out: Ryegrass, Italian plant response rating (0 to 100 scale, 0 no effect, 100 complete control)). Also, the pest or weed control at 31 g/ha in assay [1] (Postemergence, 31 g ai/ha, visual injury after approx. 10 d, 0 to 100 scale, 0 no effect, 100 complete control, read-out: Plant response rating, Ragweed) came out at 0%; in assay [2] (Postemergence, 31 g ai/ha, visual injury after approx. 10 d, 0 to 100 scale, 0 no effect, 100 complete control, read-out: Plant response rating, Blackgrass) it was 0%; in assay [3] (Postemergence, 31 g ai/ha, visual injury after approx. 10 d, 0 to 100 scale, 0 no effect, 100 complete control, read-out: Plant response rating, Barnyardgrass) it was 0%; in assay [4] (Postemergence, 31 g ai/ha, visual injury after approx. 10 d, 0 to 100 scale, 0 no effect, 100 complete control, read-out: Plant response rating, Ryegrass, Italian), 0%. Further, the plant injury at 125 g/ha in the assay on corn (Zea mays) (postemergence, visual injury rating after approximately 10 d, read-out: Corn plant response rating (0 to 100 scale, 0 no effect, 100 complete control)) is 0%. In addition, the Corn plant response rating (crop injury, 0 = no effect, 100 = complete kill) at 31 g/ha in the assay on corn (Zea mays) (Postemergence, 31 g ai/ha, visual injury after approx. 10 d, 0 to 100 scale, 0 no effect, 100 complete control) amounted to 0%.
As for `O=C1NC[C@H](c2cccc(C(F)(F)F)c2)[C@H]1C(=O)Nc1ccccc1C1CC1` [Compound 748], the pest or weed control at 125 g/ha in assay [1] (setting [15]) worked out at 0%; in assay [2] (setting [16]) it was 0%; in assay [3] (setting [17]), 40%; in assay [4] (setting [18]), 0%. The molecule also displayed a Corn plant response rating (crop injury, 0 = no effect, 100 = complete kill) at 125 g/ha in the assay on corn (Zea mays) (setting [19]) of 0%.
With `CN1CC[C@H](c2ccc(C(F)(F)F)cc2)[C@@H](C(=O)Nc2ccc(F)c(F)c2F)C1=O` [Compound 1226], the pest or weed control at 125 g/ha in assay [1] (setting [10]) is 0%; in assay [2] (setting [11]), 20%; in assay [3] (setting [12]) it was 100%; in assay [4] (setting [13]), 0%. Further, the pest or weed control at 500 g/ha in assay [1] (postemergence, 0 to 100 scale, 0 is no effect, 100 is complete control, read-out: Ragweed plant response rating) was 50%; in assay [2] (postemergence, 0 to 100 scale, 0 is no effect, 100 is complete control, read-out: Blackgrass plant response rating), 30%; in assay [3] (postemergence, 0 to 100 scale, 0 is no effect, 100 is complete control, read-out: Barnyardgrass plant response rating) it was 100%; in assay [4] (postemergence, 0 to 100 scale, 0 is no effect, 100 is complete control, read-out: Ryegrass, Italian plant response rating) it was 0%. In addition, the plant injury at 125 g/ha in the assay on corn (Zea mays) (setting [14]) was determined as 30%. In addition, in the assay with corn (Zea mays) (500 g ai/ha, postemergence, 0 to 100 scale, 0 is no effect, 100 is complete control, read-out: Corn plant response rating), the plant injury at 500 g/ha is 70%.
